Earlier results in patent US20120258202A1, “Compositions and Methods for an Appetite Suppressant and a Nutrient Absorption Blocker with Treatment To Raise Metabolic Rate” (priority 2011, published 2012).

Legend:
[1] = after ORLISTAT was stopped
[2] = people taking sibutramine; control 10.0%
[3] = laboratory animals

Which “interruption of the treatment due to anxiety, insomnia, and nervousness (each)” value (in vivo) does the source give for `CNCCC(Oc1ccc(C(F)(F)F)cc1)c1ccccc1` (stereo not drawn) [fluoxetine, Fluoxetine] here?
Its value is 1-2%.

And the anorexia (prescribing information, placebo 3%)?
The anorexia was 10%.

And the somnolence (prescribing information, placebo 5%)?
Its somnolence is 12%.

What about the anxiety (prescribing information, placebo 6%) of the same molecule?
Its anxiety is 12%.

And the nausea (prescribing information, placebo 9%)?
Its nausea is 22%.

And the insomnia (prescribing information, placebo 10%)?
Its insomnia is 19%.

For `CCCCCCCCCCC[C@@H](C[C@@H]1OC(=O)[C@H]1CCCCCC)OC(=O)[C@H](CC(C)C)NC=O` [orlistat, tetrahydrolipstatin], which “weight regained after drug was stopped, of the weight lost” value [1] is on record?
Its value is “up to 35%”.

With `CC(C)CC(N(C)C)C1(c2ccc(Cl)cc2)CCC1` (stereo not drawn) [sibutramine, Sibutramine] as the molecule, how does the cardiovascular events [2] read?
Its cardiovascular events is 11.4%.

Which body weight [3] does the source give for `CN[C@H]1CC[C@@H](c2ccc(Cl)c(Cl)c2)c2ccccc21` [sertraline, Sertraline] here?
The body weight was “resulted in weight loss”.
